Laboratory results published in US12077503B2, “Substituted cyclic amides and their use as herbicides” (FMC CORPORATION, priority 2015, dated 2024).

How the values were obtained:
Assay type in all cases: in vivo
[1] = system: redroot pigweed (Amaranthus retroflexus); experiment: Test G Pre-Emergence Protocol; settings: Amaranthus retroflexus, pre-emergence, 312 h, evaluated after 13 days; for pest or weed control at 15.625 g/ha: 15.625 g ai/ha; for pest or weed control at 15.625 g/ha / pest or weed control at 250 g/ha: read-out: Pigweed, Redroot damage rating (100=total damage to plant; 0=no damage to plant); for pest or weed control at 62.5 g/ha: 62.5 g ai/ha, 100=total damage to plant, 0=no damage to plant, read-out: plant damage rating, Pigweed, Redroot; for pest or weed control at 250 g/ha: 250 g ai/ha
How it was run: (§1)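 Under a 24/16° C day/night regime with 14 h light and 65% humidity, sown pots were sprayed after one day with compound (15.625, 62.5 or 250 g/ha; 50:50 acetone/water, 0.5% Tween 20). Damage was assessed visually 13 days later, 0 to 100.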

[2] = system: velvetleaf (Abutilon theophrasti); experiment: Test G Pre-Emergence Protocol; settings: Abutilon theophrasti, pre-emergence, 312 h, evaluated after 13 days; for pest or weed control at 15.625 g/ha: 15.625 g ai/ha; for pest or weed control at 15.625 g/ha / pest or weed control at 250 g/ha: read-out: Velvetleaf damage rating (100=total damage to plant; 0=no damage to plant); for pest or weed control at 62.5 g/ha: 62.5 g ai/ha, 100=total damage to plant, 0=no damage to plant, read-out: plant damage rating, Velvetleaf; for pest or weed control at 250 g/ha: 250 g ai/ha
How it was run: as §1

[3] = system: giant foxtail (Setaria faberi); experiment: Test G Pre-Emergence Protocol; settings: Setaria faberi, pre-emergence, 312 h, evaluated after 13 days; for pest or weed control at 15.625 g/ha: 15.625 g ai/ha; for pest or weed control at 15.625 g/ha / pest or weed control at 250 g/ha: read-out: Foxtail, Giant damage rating (100=total damage to plant; 0=no damage to plant); for pest or weed control at 62.5 g/ha: 62.5 g ai/ha, 100=total damage to plant, 0=no damage to plant, read-out: plant damage rating, Foxtail, Giant; for pest or weed control at 250 g/ha: 250 g ai/ha
How it was run: as §1

[4] = system: ivy-leaved morning glory (Ipomoea hederacea); experiment: Test G Pre-Emergence Protocol; settings: Ipomoea, pre-emergence, 312 h, evaluated after 13 days; for pest or weed control at 15.625 g/ha: 15.625 g ai/ha, read-out: Morning-glory, Ivy-leaved damage rating (100=total damage to plant; 0=no damage to plant); for pest or weed control at 62.5 g/ha: 62.5 g ai/ha, 100=total damage to plant, 0=no damage to plant, read-out: plant damage rating, Morningglory, Ivy-leaved; for pest or weed control at 250 g/ha: 250 g ai/ha, read-out: Morningglory, Ivy-leaved damage rating (100=total damage to plant; 0=no damage to plant)
How it was run: as §1

[5] = system: barnyardgrass (Echinochloa crus-galli); experiment: Test G Pre-Emergence Protocol; settings: Echinochloa crus-galli, pre-emergence, 312 h, evaluated after 13 days; for pest or weed control at 15.625 g/ha: 15.625 g ai/ha, read-out: Barnyard grass damage rating (100=total damage to plant; 0=no damage to plant); for pest or weed control at 62.5 g/ha: 62.5 g ai/ha, 100=total damage to plant, 0=no damage to plant, read-out: plant damage rating, Barnyardgrass; for pest or weed control at 250 g/ha: 250 g ai/ha, read-out: Barnyardgrass damage rating (100=total damage to plant; 0=no damage to plant)
How it was run: as §1

[6] = system: corn (Zea mays); experiment: Test G Pre-Emergence Protocol; settings: Zea mays, pre-emergence, 312 h, evaluated after 13 days; for plant injury at 15.625 g/ha: 15.625 g ai/ha; for plant injury at 15.625 g/ha / plant injury at 250 g/ha: read-out: Corn damage rating (100=total damage to plant; 0=no damage to plant); for plant injury at 62.5 g/ha: 62.5 g ai/ha, 100=total damage to plant, 0=no damage to plant, read-out: plant damage rating, Corn; for plant injury at 250 g/ha: 250 g ai/ha
How it was run: as §1

[7] = system: redroot pigweed (Amaranthus retroflexus); experiment: Test G Post-Emergence Protocol; settings: Amaranthus retroflexus, post-emergence, 312 h; for pest or weed control at 15.625 g/ha: 15.625 g ai/ha, evaluated after 13 days (100=total damage to plant; 0=no damage to plant), read-out: Pigweed, Redroot damage rating; for pest or weed control at 62.5 g/ha: 62.5 g ai/ha, read-out: Pigweed, Redroot damage rating (100=total damage to plant; 0=no damage to plant); for pest or weed control at 62.5 g/ha / pest or weed control at 250 g/ha: evaluated after 13 days; for pest or weed control at 250 g/ha: 250 g ai/ha, read-out: damage to plant, Pigweed, Redroot (100=total damage to plant; 0=no damage to plant)
How it was run: (§2)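 Values are percent visual injury at 13 days after treatment (0 none, 100 total). Treatment was a post-emergence spray at 15.625, 62.5 or 250 g/ha on 8-day-old pot plants kept at 24/16 °C.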

[8] = system: velvetleaf (Abutilon theophrasti); experiment: Test G Post-Emergence Protocol; settings: Abutilon theophrasti, post-emergence, 312 h; for pest or weed control at 15.625 g/ha: 15.625 g ai/ha, evaluated after 13 days (100=total damage to plant; 0=no damage to plant), read-out: Velvetleaf damage rating; for pest or weed control at 62.5 g/ha: 62.5 g ai/ha, read-out: Velvetleaf damage rating (100=total damage to plant; 0=no damage to plant); for pest or weed control at 62.5 g/ha / pest or weed control at 250 g/ha: evaluated after 13 days; for pest or weed control at 250 g/ha: 250 g ai/ha, read-out: damage to plant, Velvetleaf (100=total damage to plant; 0=no damage to plant)
How it was run: as §2

[9] = system: giant foxtail (Setaria faberi); experiment: Test G Post-Emergence Protocol; settings: Setaria faberi, post-emergence, 312 h; for pest or weed control at 15.625 g/ha: 15.625 g ai/ha, evaluated after 13 days (100=total damage to plant; 0=no damage to plant), read-out: Foxtail, Giant damage rating; for pest or weed control at 62.5 g/ha: 62.5 g ai/ha, read-out: Foxtail, Giant damage rating (100=total damage to plant; 0=no damage to plant); for pest or weed control at 62.5 g/ha / pest or weed control at 250 g/ha: evaluated after 13 days; for pest or weed control at 250 g/ha: 250 g ai/ha, read-out: damage to plant, Foxtail, Giant (100=total damage to plant; 0=no damage to plant)
How it was run: as §2

[10] = system: ivy-leaved morning glory (Ipomoea hederacea); experiment: Test G Post-Emergence Protocol; settings: Ipomoea, post-emergence, 312 h; for pest or weed control at 15.625 g/ha: 15.625 g ai/ha, evaluated after 13 days (100=total damage to plant; 0=no damage to plant), read-out: Morningglory, Ivy-leaved damage rating; for pest or weed control at 62.5 g/ha: 62.5 g ai/ha, read-out: Morningglory, Ivy-leaved damage rating (100=total damage to plant; 0=no damage to plant); for pest or weed control at 62.5 g/ha / pest or weed control at 250 g/ha: evaluated after 13 days; for pest or weed control at 250 g/ha: 250 g ai/ha, read-out: damage to plant, Morningglory, Ivy-leaved (100=total damage to plant; 0=no damage to plant)
How it was run: as §2

[11] = system: barnyardgrass (Echinochloa crus-galli); experiment: Test G Post-Emergence Protocol; settings: Echinochloa crus-galli, post-emergence, 312 h; for pest or weed control at 15.625 g/ha: 15.625 g ai/ha, evaluated after 13 days (100=total damage to plant; 0=no damage to plant), read-out: Barnyardgrass damage rating; for pest or weed control at 62.5 g/ha: 62.5 g ai/ha, read-out: Barnyardgrass damage rating (100=total damage to plant; 0=no damage to plant); for pest or weed control at 62.5 g/ha / pest or weed control at 250 g/ha: evaluated after 13 days; for pest or weed control at 250 g/ha: 250 g ai/ha, read-out: damage to plant, Barnyardgrass (100=total damage to plant; 0=no damage to plant)
How it was run: as §2

[12] = system: corn (Zea mays); experiment: Test G Post-Emergence Protocol; settings: Zea mays, post-emergence, 312 h; for plant injury at 15.625 g/ha: 15.625 g ai/ha, evaluated after 13 days (100=total damage to plant; 0=no damage to plant), read-out: Corn damage rating; for plant injury at 62.5 g/ha: 62.5 g ai/ha, read-out: Corn damage rating (100=total damage to plant; 0=no damage to plant); for plant injury at 62.5 g/ha / plant injury at 250 g/ha: evaluated after 13 days; for plant injury at 250 g/ha: 250 g ai/ha, read-out: damage to plant, Corn (100=total damage to plant; 0=no damage to plant)
How it was run: as §2

| SMILES | pest or weed control at 15.625 g/ha [1] [%] | pest or weed control at 62.5 g/ha [1] [%] | pest or weed control at 250 g/ha [1] [%] | pest or weed control at 15.625 g/ha [2] [%] | pest or weed control at 62.5 g/ha [2] [%] | pest or weed control at 250 g/ha [2] [%] | pest or weed control at 15.625 g/ha [3] [%] | pest or weed control at 62.5 g/ha [3] [%] | pest or weed control at 250 g/ha [3] [%] | pest or weed control at 15.625 g/ha [4] [%] | pest or weed control at 62.5 g/ha [4] [%] | pest or weed control at 250 g/ha [4] [%] | pest or weed control at 15.625 g/ha [5] [%] | pest or weed control at 62.5 g/ha [5] [%] | pest or weed control at 250 g/ha [5] [%] | plant injury at 15.625 g/ha [6] [%] | plant injury at 62.5 g/ha [6] [%] | plant injury at 250 g/ha [6] [%] | pest or weed control at 15.625 g/ha [7] [%] | pest or weed control at 62.5 g/ha [7] [%] | also measured |
| --- | --- | --- | --- | --- | --- | --- | --- | --- | --- | --- | --- | --- | --- | --- | --- | --- | --- | --- | --- | --- | --- |
| CN1C[C@@H](c2ccc(C(F)(F)F)cc2)[C@H](C(=O)Nc2ccn(C)n2)C1=O (racemic) [Compound 1615] | 0 | 0 | 0 | 0 | 0 | 0 | 0 | 0 | 0 | 0 | 0 | 0 | 0 | 0 | 0 | 0 | 0 | 0 | 0 | 0 | pest or weed control at 250 g/ha [7]: 0%; pest or weed control at 15.625 g/ha [8]: 0%; pest or weed control at 62.5 g/ha [8]: 0%; pest or weed control at 250 g/ha [8]: 0%; pest or weed control at 15.625 g/ha [9]: 0%; pest or weed control at 62.5 g/ha [9]: 0%; pest or weed control at 250 g/ha [9]: 0%; pest or weed control at 15.625 g/ha [10]: 0%; pest or weed control at 62.5 g/ha [10]: 0%; pest or weed control at 250 g/ha [10]: 0%; pest or weed control at 15.625 g/ha [11]: 0%; pest or weed control at 62.5 g/ha [11]: 0%; pest or weed control at 250 g/ha [11]: 0%; plant injury at 15.625 g/ha [12]: 0%; plant injury at 62.5 g/ha [12]: 0%; plant injury at 250 g/ha [12]: 0% |
| CN1C[C@H](c2cccc(C(C)(C)C#N)c2)[C@@H](C(=O)Nc2ccccc2F)C1=O (racemic) [Compound 1407] | 0 | 0 | 0 | 0 | 0 | 0 | 50 | 80 | 90 | 0 | 0 | 0 | 10 | 80 | 90 | 0 | 0 | 0 | 20 | 10 | pest or weed control at 250 g/ha [7]: 30%; pest or weed control at 15.625 g/ha [8]: 10%; pest or weed control at 62.5 g/ha [8]: 20%; pest or weed control at 250 g/ha [8]: 20%; pest or weed control at 15.625 g/ha [9]: 0%; pest or weed control at 62.5 g/ha [9]: 70%; pest or weed control at 250 g/ha [9]: 70%; pest or weed control at 15.625 g/ha [10]: 0%; pest or weed control at 62.5 g/ha [10]: 20%; pest or weed control at 250 g/ha [10]: 30%; pest or weed control at 15.625 g/ha [11]: 10%; pest or weed control at 62.5 g/ha [11]: 40%; pest or weed control at 250 g/ha [11]: 60%; plant injury at 15.625 g/ha [12]: 0%; plant injury at 62.5 g/ha [12]: 10%; plant injury at 250 g/ha [12]: 20% |
